From patent publication US9326508B2, “(S)-3′-methyl-abscisic acid and esters thereof” (Valent BioSciences Corporation, priority 2014, dated 2016)

How the values were obtained:
Arabidopsis thaliana = experiment: Seed Germination Assay; assay type: in vivo; settings: for time for 100% germination: Arabidopsis seed, 0.3 ppm test compound, 0.5% DMSO
Protocol: To determine the germination inhibition potency of the analogs, a germination assay was performed with the model plant Arabidopsis thaliana. Arabidopsis seed was sterilized by shaking for five minutes in 200 proof ethanol, followed by shaking for five minutes in a 10% bleach solution. The seeds were then washed five times in sterile, distilled, de-ionized water and suspended in 0.1% phytoagar. The tubes containing the seeds were wrapped in aluminum foil and stratified at 4° C. for at least two days. The analogs were tested in four-well plates. Each plate contained one well each of a 0.5% DMSO control, (S)-ABA, (S)-3′-methyl-ABA (Example 2) and (±)-3′-methyl-ABA (Example 4), all at a desired concentration. In a typical experiment, 18 microliters of a 100 ppm stock solution of each compound in 10% DMSO was pipetted into the designated well. Additional DMSO (28.2 microliters) and water (3.8 microliters) was added to each well, followed by the addition of 5.95 mL of ½×Murashige and Skoog media containing 1.2% Bactoagar to all the wells. This gave a total volume of 6.0 mL per well, 0.3 ppm of the test compound and final DMSO concentration of 0.5%. When the media solidified, one hundred sterile stratified Arabidopsis seeds were distributed into each well. The plates were sealed with surgical tape and placed in a growth chamber running diurnal cycles of 12 hours of light at 24° C. and 12 hours of darkness at 19° C. The plates were scanned daily at high resolution (600 dpi) until all seeds were germinated. A seed was scored as germinated once the radicle emerged. The percentage of seeds germinated each day is reported in the graph of FIG. 1. The tests at each concentration were repeated at least twice and the results were reproducible.

rice seedling = settings: according to Ueno, et al.; cited from earlier work
(S)-ABA 8′-hydroxylase = settings: according to Ueno, et al.; cited from earlier work

| SMILES | time for 100% germination (Arabidopsis thaliana) [days] | activity in rice seedling elongation assay relative to (S)-ABA (rice seedling) | activity in (S)-ABA 8′-hydroxylase inhibition assay relative to (S)-ABA ((S)-ABA 8′-hydroxylase) | potency at inhibiting Arabidopsis seed germination relative to (S)-ABA or (±)-3′-methyl-ABA (Arabidopsis thaliana; 0.3 ppm, FIG. 1) |
| --- | --- | --- | --- | --- |
| CC1=CC(=O)CC(C)(C)[C@@]1(O)/C=C/C(C)=C/C(=O)O [(S)-ABA, (S)-abscisic acid] | 6 | – | – | – |
| CC1=C(C)C(O)(/C=C/C(C)=C\C(=O)O)C(C)(C)CC1=O (racemic) [Example 4, (±)-(2Z,4E)-5-(1-hydroxy-2,3,6,6-tetramethyl-4-oxocyclohex-2-en-1-yl)-3-methylpenta-2,4-dienoic acid] | 8 | equal activity to (S)-ABA | weaker activity than (S)-ABA | – |
| CC1=C(C)[C@](O)(/C=C/C(C)=C\C(=O)O)C(C)(C)CC1=O [Example 2, (2Z,4E)-((S)-1-hydroxy-2,3,6,6-tetramethyl-4-oxocyclohex-2-en-1-yl)-3-methylpenta-2,4-dienoic acid] | 15 | – | – | more potent |
